Paper PMC7515950, “Physiologically based pharmacokinetic modeling to assess metabolic drug–drug interaction risks and inform the drug label for fedratinib” (Cancer Chemotherapy and Pharmacology, 2020)
Values joined by “and” are separate entries in the source; they are usually repeats but may differ in a detail not shown here. Identical values can stand only once.

Tests used:
[1] = Physicochemical properties (Study QUA-PG-2011-20593); conditions: for pKa: free form is a diprotic base
Text: (§1) The physicochemical properties and blood binding parameters of fedratinib including molecular weight, logP, pKa, fu, and B/P were experimentally measured and listed in Table 1.

[2] = In vitro binding to human plasma proteins (Study LPR1082); assay type: in vitro ADME; conditions: mainly bound to α1-acid glycoprotein, read-out: fu (unbound fraction in plasma)
Text: as §1

CYP2C19 = target: T1, CYP2C19 (Homo sapiens, UniProt P33261); test: CYP mechanism-based inhibition in human liver microsomes (MIH0887), CYP2C19; assay type: in vitro ADME; conditions: HLM
T1 construct: from tissue; host or cells: human liver microsomes
Procedure: The CYP enzyme reverse inhibition and mechanism-based inhibition (MBI) parameters were estimated in the human liver microsome (HLM) incubation in vitro studies. The reported reversible inhibition parameter (i.e., apparent Ki) values for CYP2C8, CYP2C9, and CYP2D6, along with the MBI parameters (i.e., KI or Kapp and kinact) for CYP2C19 and CYP3A4, were supplied to the PBPK DDI model (see Table 2).

BCRP = target: T2, BCRP (Homo sapiens, UniProt Q9UNQ0); test: BCRP inhibition, vesicle-based (TRI0013); assay type: in vitro ADME
T2 sequence (Q9UNQ0 1-655): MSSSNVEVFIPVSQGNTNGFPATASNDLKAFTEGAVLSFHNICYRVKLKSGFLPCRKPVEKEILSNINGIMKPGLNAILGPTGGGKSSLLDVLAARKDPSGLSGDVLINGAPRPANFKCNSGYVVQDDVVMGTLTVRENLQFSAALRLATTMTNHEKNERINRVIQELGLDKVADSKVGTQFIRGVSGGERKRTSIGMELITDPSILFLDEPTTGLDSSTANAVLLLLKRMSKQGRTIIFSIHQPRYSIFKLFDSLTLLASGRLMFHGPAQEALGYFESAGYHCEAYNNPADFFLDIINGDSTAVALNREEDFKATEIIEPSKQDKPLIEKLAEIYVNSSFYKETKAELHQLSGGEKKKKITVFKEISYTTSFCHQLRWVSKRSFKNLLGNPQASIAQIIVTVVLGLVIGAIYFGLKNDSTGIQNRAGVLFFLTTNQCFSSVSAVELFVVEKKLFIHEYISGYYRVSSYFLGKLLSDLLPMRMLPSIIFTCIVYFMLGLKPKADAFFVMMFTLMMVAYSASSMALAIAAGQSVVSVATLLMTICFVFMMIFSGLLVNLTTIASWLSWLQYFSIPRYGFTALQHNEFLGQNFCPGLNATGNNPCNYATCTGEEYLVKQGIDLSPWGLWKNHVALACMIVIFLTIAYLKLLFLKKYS
Text: (§2) The reported IC50 values were converted to Ki values using the Cheng-Prusoff equation [10]:
(§3) The transporter inhibition parameters (Ki) for fedratinib were derived from the experimentally determined IC50 values using the Cheng-Prusoff equation, i.e., Ki = IC50/(1+[S]/Km) with the substrate concentrations ([S]) reported in the experimental studies and the substrate Km values collected from literature, as summarized in Table 13.

[3] = test system: cryopreserved human hepatocytes; test: Contribution of metabolic enzymes in cryopreserved human hepatocytes (MIH0888); assay type: in vitro ADME; conditions: 1 µM fedratinib
[4] = Clinical single-dose PK of fedratinib in healthy subjects; assay type: in vivo, human; conditions: corresponding to dose-normalized AUC of 30 ng·h/(mL·mg)
Procedure: First, the developed PBPK model was verified against clinical observations in healthy subjects administered single doses of 300 mg fedratinib alone without further modifications. Second, the developed PBPK model was verified against clinical data under repeated dosing scenarios. As no repeated-dosing studies have been conducted in healthy volunteers, the model verification was conducted using the clinical PK profiles from myelofibrosis (MF) patients administered repeated doses of 300, 400, or 500 mg fedratinib once a day (QD). Third, the PBPK model of fedratinib was verified against the clinical data observed in healthy volunteers co-dosed with fedratinib (300 mg, single dose) and ketoconazole (200 mg BID).
AUC refers to AUCinf for the single dose scenarios and AUCτ for the repeated QD dose scenarios. The number of subjects (n) = 6 in TDU12620, n = 17 in INT12894, n = 10-11 in ARD11936, and n = 100 in virtual trial simulations, respectively. All model simulations listed in the table were simulated using the default “Healthy Volunteers” and “Cancer” population files provided in Simcyp® (V17R1). The prediction error is calculated using PE = (GMprediction – GMobservation)/GMobservation ×100%, where GM refers to geometric mean. SD refers to standard deviation.

OATP1B1 = target: T3, OATP1B1 (Homo sapiens, UniProt Q9Y6L6); test: OATP1B1 inhibition, HEK-hOATP1B1 cells (TRE0075); assay type: in vitro ADME; parameters: expressed in transfected cells; host or cells: HEK^TR-hOATP1B1
T3 sequence (Q9Y6L6 1-691): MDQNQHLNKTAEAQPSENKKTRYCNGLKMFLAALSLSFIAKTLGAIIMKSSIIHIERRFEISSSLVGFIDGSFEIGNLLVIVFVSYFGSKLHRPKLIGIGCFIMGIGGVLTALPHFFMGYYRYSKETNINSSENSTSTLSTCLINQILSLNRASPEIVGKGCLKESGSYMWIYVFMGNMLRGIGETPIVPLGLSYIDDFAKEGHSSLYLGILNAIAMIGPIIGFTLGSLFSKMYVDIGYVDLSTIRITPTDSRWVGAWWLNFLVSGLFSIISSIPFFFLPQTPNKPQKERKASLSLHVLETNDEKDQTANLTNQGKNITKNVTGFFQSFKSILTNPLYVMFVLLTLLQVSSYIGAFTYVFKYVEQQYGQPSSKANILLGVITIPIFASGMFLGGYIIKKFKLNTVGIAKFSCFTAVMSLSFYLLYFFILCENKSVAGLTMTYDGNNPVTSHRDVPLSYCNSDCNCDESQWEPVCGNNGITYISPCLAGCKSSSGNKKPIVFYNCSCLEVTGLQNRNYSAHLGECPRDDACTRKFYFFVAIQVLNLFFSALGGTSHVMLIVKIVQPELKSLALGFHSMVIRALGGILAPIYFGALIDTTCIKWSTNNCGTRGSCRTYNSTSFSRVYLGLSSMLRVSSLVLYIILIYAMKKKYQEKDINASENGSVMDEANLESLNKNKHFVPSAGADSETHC
Text: as §2, §3

T1 sequence (P33261 whole entry): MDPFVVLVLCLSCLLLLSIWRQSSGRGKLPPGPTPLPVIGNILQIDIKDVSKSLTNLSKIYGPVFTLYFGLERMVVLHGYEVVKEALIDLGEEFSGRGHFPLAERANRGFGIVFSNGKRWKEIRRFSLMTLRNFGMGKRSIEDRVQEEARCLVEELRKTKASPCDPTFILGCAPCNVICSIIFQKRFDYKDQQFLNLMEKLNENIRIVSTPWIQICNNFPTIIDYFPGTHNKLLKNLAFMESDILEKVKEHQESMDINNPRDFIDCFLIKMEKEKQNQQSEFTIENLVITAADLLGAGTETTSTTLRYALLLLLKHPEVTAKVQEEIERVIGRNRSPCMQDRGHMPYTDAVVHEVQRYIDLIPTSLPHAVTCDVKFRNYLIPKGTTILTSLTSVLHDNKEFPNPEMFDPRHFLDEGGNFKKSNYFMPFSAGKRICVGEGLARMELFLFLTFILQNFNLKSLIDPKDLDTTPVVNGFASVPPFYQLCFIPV

LogPo:w ([1]; Study QUA-PG-2011-20593): 3.500 | logP ([1]; octanol/water, Study QUA-PG-2011-20593): 3.5 | pKa ([1]; pKa1 (base)): 6.4 | pKa ([1]; pKa2 (base)): 9.6 | fraction unbound [2]: 0.05 | CYP2C19 KI or Kapp (CYP2C19): 112 µM | CYP2C19 KI or Kapp (CYP2C19; listed as fedratinib): 112.000 µM | kinact (CYP2C19; human, human liver microsomes): 0.000558 s⁻¹ | Ki (BCRP; from IC50 by Cheng-Prusoff, probe methotrexate): 27.8 µM | IC50 (BCRP; probe methotrexate 100 μM): 29.9 µM | hepatic metabolic clearance percentage, CYP2C19 [3]: 17% and ~ 17% | hepatic metabolic clearance percentage, CYP2D6 [3]: 2% and ~ 2% | hepatic metabolic clearance percentage, CYP3A [3]: 63% and ~ 63% | metabolic contribution to hepatic clearance, other liver enzymes [3]: ~ 18% | CL/F [4]: 33.3 L/h | Ki (OATP1B1; from IC50 by Cheng-Prusoff, probe estradiol-17β-glucuronide): 14.6 µM | IC50 (OATP1B1; probe estradiol-17β-glucuronide 1 μM): 16.4 µM
Structure (SMILES): Cc1cnc(Nc2ccc(OCCN3CCCC3)cc2)nc1Nc1cccc(S(=O)(=O)NC(C)(C)C)c1 [Fedratinib]
